Laboratory results: patent publication US20240140953A1, “INHIBITORS OF MENIN-MLL INTERACTION” (BIOMEA FUSION, INC., priority 2018, published 2024)
Read-outs that look alike come from different tables or passages of the source.

Assays:
[1] = tested on: HL-60; experiment: LTP assay, CellTiterGlo, T4-T14 (Example 103), HL-60; type: cell-based
Protocol: (§1) The day of the experiment (T0) all the cell line suspensions were counted by Cell Viability Analyser, Vi-CELL and properly diluted with fresh medium to obtain the cell density reported in the Test System paragraph.
(§2) Cells were tested after 4 passages after thawing.
(§3) 200 μL/well and 150 μL/well of cell suspension were added into the 0.4 μL/well and 0.3 μL/well compound plates, respectively. • Cell plate containing 200 μL/well suspension was incubated at 37° C. in a humidified incubator with 5% CO2. • From each well of the 150 μL/well cell assay plate, 100 μL were harvested and transferred into a 96-well Optiplate (Perkin Elmer, Cat. n. 6005290) and cell viability was measured as described in 4.3 paragraphs (T0).
(§4) After four days in culture (T4) 150 μL/well of fresh medium were added into a new 0.3 μL/well copy compound plate. • From each well of the 200 μL/well cell assay plate: • 100 μL were sampled for the cell viability measurement as described in 4.3 paragraphs (T4). • 50 μL were harvested and added to the 150 μL/well compound plate prepared as described in the first point to dilute 1:4 the cell suspension. • The cell assay plate diluted and containing 200 μL/well suspension were incubated at 37° C. in a humidified incubator with 5% Co2.
(§5) At T7-T11-T14 it was proceeded as described in T4, with the exception that no further cell dilution was carried out at T14.
(§6) Plates containing the samples to be tested were equilibrated at room temperature for approximately 30 min and then 30 μL/well of the Promega CellTiterGlo® reagent were added.
(§7) Contents will be mixed for 5 min on an orbital shaker to induce cell lysis and then incubated at room temperature for an additional 10 min to stabilize the luminescent signal.
(§8) Luminescence was read by using VictorV (Perkin Elmer) multilabel plate reader using the standard protocol for luminescence in 96 well plate.
(§9) Data were expressed as % of inhibition compared to the 0.2% DMSO negative control, and was calculated as follows: […]
(§10) CRCs were analysed by GraphPad and IC50 values were calculated by non-linear regression using 4 parameter-logistic equation. IC50 (μM) values were reported in the final data table.
(§11) The curve fittings were performed leaving free all the parameters. Any constrain were reported in the results table.

[2] = tested on: MOLM-13 (MLL-AF9); experiment: LTP assay, CellTiterGlo, T4-T14 (Example 103), MOLM-13; type: cell-based, human; conditions: for IC50: Homo sapiens
Protocol: as §1, §2, §3, §4, §5, §6, §7, §8, §9, §10, §11

[3] = tested on: MV4-11 (MLL-AF4); experiment: LTP assay, CellTiterGlo, T4-T14 (Example 103), MV4-11; type: cell-based, human; conditions: for IC50: Homo sapiens
Protocol: as §1, §2, §3, §4, §5, §6, §7, §8, §9, §10, §11

[4] = tested on: RS4-11 (MLL-AF4); experiment: LTP assay, CellTiterGlo, T4-T14 (Example 103), RS4-11; type: cell-based; conditions: for IC50: Homo sapiens
Protocol: as §1, §2, §3, §4, §5, §6, §7, §8, §9, §10, §11

[5] = Homo sapiens, HL-60, 96 h, HL-60, T4 (Day 4), read-out: IC50 T4 (Day 4)
[6] = Homo sapiens, HL-60, HL-60, T7, read-out: IC50 T7
[7] = Homo sapiens, HL-60, HL-60, T11, read-out: IC50 T11
[8] = Homo sapiens, HL-60, HL-60, T14, read-out: IC50 T14
[9] = MOLM-13, 96 h, MOLM-13 (MLL-AF9), T4 (Day 4), read-out: IC50 T4 (Day 4)
[10] = MOLM-13, MOLM-13 (MLL-AF9), T7, read-out: IC50 T7
[11] = MOLM-13, MOLM-13 (MLL-AF9), T11, read-out: IC50 T11
[12] = MOLM-13, MOLM-13 (MLL-AF9), T14, read-out: IC50 T14
[13] = MV4-11, 96 h, MV4-11 (MLL-AF4), T4 (Day 4), read-out: IC50 T4 (Day 4)
[14] = MV4-11, MV4-11 (MLL-AF4), T7, read-out: IC50 T7
[15] = MV4-11, MV4-11 (MLL-AF4), T11, read-out: IC50 T11
[16] = MV4-11, MV4-11 (MLL-AF4), T14, read-out: IC50 T14
[17] = RS4-11, 96 h, RS4-11 (MLL-AF4), T4 (Day 4), read-out: IC50 T4 (Day 4)
[18] = RS4-11, RS4-11 (MLL-AF4), T7, read-out: IC50 T7
[19] = RS4-11, RS4-11 (MLL-AF4), T11, read-out: IC50 T11

IC50 [1, 5]	IC50 [1, 6]	IC50 [1, 7]	IC50 [1, 8]	IC50 [2, 9]	IC50 [2, 10]	IC50 [2, 11]	IC50 [2, 12]	IC50 [3, 13]	IC50 [3, 14]	IC50 [3, 15]	IC50 [3, 16]	IC50 [4, 17]	IC50 [4, 18]	IC50 [4, 19]	IC50 ([1]; HL-60, T7, read-out: IC50 T7)	SMILES	inhibition of cell viability (in words) ([1]; HL-60, LTP assay)	inhibition of cell viability (in words) ([2]; MOLM-13, LTP assay)	inhibition of cell viability (in words) ([3]; MV4-11, LTP assay)	inhibition of cell viability (in words) ([4]; RS4;11, LTP assay)
> 5000 nM	> 5000 nM	> 5000 nM	> 5000 nM	> 5000 nM	> 5000 nM	> 5000 nM	> 5000 nM	> 5000 nM	> 5000 nM	2630 nM	2190 nM	> 5000 nM	1350 nM	> 5000 nM	–	Cc1cn(-c2nccc3[nH]c(-c4ccc(NC(=O)Cc5cc(-c6cccnc6)n[nH]5)cc4)nc23)cn1 [Compound 31, N-[4-[4-(4-methylimidazol-1-yl)-1H-imidazo[4,5-c]pyridin-2-yl]phenyl]-2-(3-pyridin-3-yl-1H-pyrazol-5-yl)acetamide]	–	–	–	–
> 5000 nM	> 5000 nM	> 5000 nM	> 5000 nM	> 5000 nM	> 5000 nM	> 5000 nM	> 5000 nM	> 5000 nM	4900 nM	3090 nM	2690 nM	> 5000 nM	2750 nM	> 5000 nM	–	Cc1ccc(-c2cc(CC(=O)Nc3ccc(-c4nc5c(N6CCOCC6)nccc5[nH]4)cc3)[nH]n2)cn1 [Compound 32]	–	–	–	–
1550 nM	870 nM	650 nM	590 nM	830 nM	740 nM	780 nM	1320 nM	1290 nM	1410 nM	50 nM	80 nM	1620 nM	1550 nM	> 5000 nM	871 nM	O=C(Nc1ccc(-c2nc3c(N4CCOCC4)nccc3[nH]2)cc1)Nc1cc(-c2cccnc2)n[nH]1 [Compound 19, 1-{4-[4-(morpholin-4-yl)-1H-imidazo[4,5-c]pyridin-2-yl]phenyl}-3-[3-(pyridin-3-yl)-1Hpyrazol-5-yl]urea]	fully inhibits the cell viability	fully inhibits the cell viability	fully inhibits the cell viability	fully inhibits the cell viability
